Key:
[1] = Forced degradation study (acid, base, 3% hydrogen peroxide), LC-UV-MS; format: physicochemical; details: 24 hours; for percent peak area at 250 nm, RRT 1.00 (purity of parent molecule) / percent peak area at 250 nm, RRT 1.05 (PRX-3140b): potassium salt
Method: Example 4—Crystalline PRX-3140 Potassium Salt Forced Degradation Study. Crystalline fine particle Form I of PRX-3140 potassium salt was subjected to a forced degradation study using acid, base, or hydrogen peroxide exposure for 24 hours. Samples were neutralized and analyzed using LC-UV-MS.
Sample Preparation: Crystalline fine particle Form I of PRX-3140 potassium salt, 50 mg, was weighed out into a 25 mL volumetric flask and taken to volume with water (2 mg/mL stock). One mL of stock was added to four, 4 mL vials. One mL of either 1N HCl, 1N NaOH, 3% H2O2, or DI Water (control) was added to the appropriate vial, mixed, and stored at room temperature for 24 hours. After storage, the samples of acid and base were neutralized by addition of 1 mL their counter solution. […] Samples were analyzed using LC-UV-MS.
Table 5 lists a comparison for the control, acid, base, and peroxide samples showing percent peak area versus relative retention time (RRT) at 250 nm. While some minor changes can be noted between the control with the acid and base samples, the overall purity (peak area) of the parent molecule is just slightly higher for the acid and base sample. Some of the minor impurities appear to be reacting with the acid or base, potentially reforming to the parent.

blood glucose = assay: Blood glucose levels after oral PRX-3140 potassium salt; format: in vivo, human; details: 15 mg orally, single dose, fed conditions, male volunteers
Method: Example 18—Blood Glucose Levels of Controls vs. Sustained-Release Oral PRX-3140 Potassium Salt Capsules. A Phase I, single dose escalation study under fed conditions was conducted in male volunteers with PRX-3140 potassium salt at the 15 mg dose level. […] The study was also conducted to examine the effects of PRX-3140 sustained-release capsule administration on the subjects' fasting and postprandial blood glucose concentrations. Subjects were monitored daily for vital signs (including blood pressure, heart rate, respiratory rate, and temperature) and adverse events. In addition, blood was drawn to assess glucose concentration. Glucose was tested within 60 minutes prior to meals in the morning and throughout the day at different timepoints.

[2] = Photostability study (ICH Q1B), HPLC; format: physicochemical
Method: […]. Samples were exposed to ICH photostability guideline Q1B=1.2 million lux hours of cool, white fluorescent light & 200 watt hours/m2 of UVA light at […]. Samples were exposed for 2 days and tested using HPLC.
[…]. The light exposure was performed in a cabinet set at 25 degrees Celsius/60% RH.
[…]. Changes were evident for crystalline fine particle Form I of PRX-3140 potassium salt after exposure to UVA and white light. The sample changed color particularly on the upper exposed surface of the material and there were changes apparent in the HPLC data. […]. The single impurity profile met the specification (0.20) but significant changes were observed. There was an increase in the number of minor impurities, particularly in a region of the chromatogram between RRT 1.5 and 2.1. Total impurities increased from 0.20% in the control sample to 0.770 in the exposed sample. An impurity at RRT 1.83 which was not present before exposure to light was formed at 0.16% in the exposed sample. Other changes included a change in appearance of the material to a sticky solid and an increase in water content to 4.3% w/w.

[3] = system: more than 50 other receptors including GPCRs, ion channels and receptor tyrosine kinases; assay: binding to other receptors tested
Source text: . The specific ligand binding to the receptors is defined as the difference between the total binding and the nonspecific binding determined in the presence of an excess of unlabelled ligand. […]

[4] = 30% peroxide degradation study; format: physicochemical; details: 18-hour exposure to 30% hydrogen peroxide; 250 nm
Method: […]. Sample was evaporated to dryness and analyzed using LC/UV/MS and NMR analysis. Two major degradants are noted in the LC/UV/MS.
[…]. The solvent is removed under vacuum at RT, then acetonitrile (5 mL) was added to the residue and evaporated to dryness at 40 degrees Celsius. […].
Two milligrams of the sample was weighed into a 4 mL vial. Two mL of 20/80 methanol/water was added to the vial and vortexed vigorously. FIG. 9A is a HPLC chromatogram of the H2O2 sample at 250 nm. Three major peaks are noted, including the parent molecule at 12.5 minutes. […]. Maximums are noted at 220, 250, and 320 nm. Chromatograms for all samples were collected at all three wavelengths with 250 nm as the primary wavelength based on lambda max. FIG. 10A is the UV spectra for the peak at 8.9 minutes. In comparison with the parent molecule, the high-end absorption is absent (320 nm). FIG. 10B is the UV spectra for the peak at 12.9 minutes. […]. An [M+H]+ is noted at 258.0 m/z with [M+H+NH3]+ at 275.1, [M+Na]+ at 280.1, and [2M+Na]+ at 537.1 m/z. It is noted that this is a fragile molecule and required the reduction of the Fragmentor Voltage from 150V down to 70V to see the protonated molecular ion. […] FIG. 11C is the mass spectra of the largest degradation product of PRX-3140b at 12.9 minutes, relative retention time (RRT) of 1.04 (compared to 1.05 in Example 4). […]

[5] = Acid (1N HCl), listed as PRX-3140 Potassium Salt
[6] = Acid (1N HCl), listed as PRX-3140 potassium salt
[7] = Base (1N NaOH), listed as PRX-3140 Potassium Salt
[8] = Base (1N NaOH), listed as PRX-3140 potassium salt
[9] = Control (DI Water), listed as PRX-3140 Potassium Salt
[10] = Control (DI Water), listed as PRX-3140 potassium salt
[11] = H2O2 (3%), listed as PRX-3140 Potassium Salt
[12] = H2O2 (3%), listed as PRX-3140 potassium salt

CC(C)n1c(=O)c(C(=O)NCCCN2CCCCC2)c([O-])c2ccsc21.[K+] [PRX-3140, 6,7-Dihydro-4-hydroxy-7-isopropyl-6-oxo-N-(3-(piperidin-1-yl)propyl)thieno[2,3-b]pyridine-5-carboxamide potassium salt]
percent peak area at 250 nm, RRT 0.99 ([1]; Acid (1N HCl)): 0.07% | percent peak area at 250 nm, RRT 1.08 ([1]; Acid (1N HCl)): 0.11% | percent peak area at 250 nm, RRT 1.11 ([1]; Acid (1N HCl)): 0.04% | percent peak area at 250 nm, RRT 1.27 ([1]; Acid (1N HCl)): 0.04% | percent peak area at 250 nm, RRT 1.34 ([1]; Acid (1N HCl)): 0.15% | percent peak area at 250 nm, RRT 1.53 ([1]; Acid (1N HCl)): 0.43% | percent peak area at 250 nm, RRT 1.79 ([1]; Acid (1N HCl)): 0.04% | percent peak area at 250 nm, RRT 2.51 ([1]; Acid (1N HCl)): 0.06% | percent peak area at 250 nm, RRT 2.70 ([1]; Acid (1N HCl)): 0.13% | percent peak area at 250 nm, RRT 1.00 (purity of parent molecule) [1, 5]: 98.94% | percent peak area at 250 nm, RRT 1.05 (PRX-3140b) [1, 5]: <0.03% | percent peak area at 250 nm, RRT 1.00 (purity of parent molecule) [1, 6]: 98.9% | percent peak area at 250 nm, RRT 1.05 (PRX-3140b) [1, 6]: < 0.03% | percent peak area at 250 nm, RRT 0.94 ([1]; Base (1N NaOH)): 0.28% | percent peak area at 250 nm, RRT 1.08 ([1]; Base (1N NaOH)): 0.12% | percent peak area at 250 nm, RRT 1.34 ([1]; Base (1N NaOH)): 0.16% | percent peak area at 250 nm, RRT 1.53 ([1]; Base (1N NaOH)): 0.42% | percent peak area at 250 nm, RRT 1.79 ([1]; Base (1N NaOH)): 0.05% | percent peak area at 250 nm, RRT 2.51 ([1]; Base (1N NaOH)): 0.05% | percent peak area at 250 nm, RRT 2.70 ([1]; Base (1N NaOH)): 0.12% | percent peak area at 250 nm, RRT 1.00 (purity of parent molecule) [1, 7]: 98.71% | percent peak area at 250 nm, RRT 1.05 (PRX-3140b) [1, 7]: <0.03% | percent peak area at 250 nm, RRT 1.00 (purity of parent molecule) [1, 8]: 98.7% | percent peak area at 250 nm, RRT 1.05 (PRX-3140b) [1, 8]: < 0.03% | percent peak area at 250 nm, RRT 1.08 ([1]; Control (DI Water)): 0.12% | percent peak area at 250 nm, RRT 1.11 ([1]; Control (DI Water)): 0.04% | percent peak area at 250 nm, RRT 1.34 ([1]; Control (DI Water)): 0.17% | percent peak area at 250 nm, RRT 1.53 ([1]; Control (DI Water)): 0.42% | percent peak area at 250 nm, RRT 1.71 ([1]; Control (DI Water)): 0.23% | percent peak area at 250 nm, RRT 1.79 ([1]; Control (DI Water)): 0.11% | percent peak area at 250 nm, RRT 1.93 ([1]; Control (DI Water)): 0.06% | percent peak area at 250 nm, RRT 2.51 ([1]; Control (DI Water)): 0.06% | percent peak area at 250 nm, RRT 2.70 ([1]; Control (DI Water)): 0.18% | percent peak area at 250 nm, RRT 1.00 (purity of parent molecule) [1, 9]: 98.60% | percent peak area at 250 nm, RRT 1.05 (PRX-3140b) [1, 9]: <0.03% | percent peak area at 250 nm, RRT 1.00 (purity of parent molecule) [1, 10]: 98.6% | percent peak area at 250 nm, RRT 1.05 (PRX-3140b) [1, 10]: < 0.03% | percent peak area at 250 nm, RRT 1.00 (purity of parent molecule) ([1]; Control (DI Water)): 98.6% | percent peak area at 250 nm, RRT 0.78 (PRX-3140a) ([1]; H2O2 (3%)): 8.49% | percent peak area at 250 nm, RRT 0.82 ([1]; H2O2 (3%)): 0.10% | percent peak area at 250 nm, RRT 1.08 ([1]; H2O2 (3%)): 0.19% | percent peak area at 250 nm, RRT 1.27 ([1]; H2O2 (3%)): 0.21% | percent peak area at 250 nm, RRT 1.34 ([1]; H2O2 (3%)): 0.09% | percent peak area at 250 nm, RRT 1.42 ([1]; H2O2 (3%)): 0.32% | percent peak area at 250 nm, RRT 1.53 ([1]; H2O2 (3%)): 0.42% | percent peak area at 250 nm, RRT 1.79 ([1]; H2O2 (3%)): 0.19% | percent peak area at 250 nm, RRT 2.70 ([1]; H2O2 (3%)): 0.11% | percent peak area at 250 nm, RRT 1.00 (purity of parent molecule) [1, 11]: 80.57% | percent peak area at 250 nm, RRT 1.05 (PRX-3140b) [1, 11]: 9.06% | percent peak area at 250 nm, RRT 1.00 (purity of parent molecule) [1, 12]: 80.6% | percent peak area at 250 nm, RRT 1.05 (PRX-3140b) [1, 12]: 9.1% | percent peak area at 250 nm, RRT 1.00 (purity of parent molecule) ([1]; H2O2 (3%)): 80.6% | mean blood glucose level decrease compared to control values (blood glucose): −19.5% | assay value ([2]; Exposed Sample (ICH Q1B light, 2 days)): 94.20 % w/w | Water Content - KF ([2]; t = 0, listed as PRX-3140 potassium salt, potassium salt): 0.900 % w/w | affinity for more than 50 other receptors tested [3]: no significant affinity | purity of the parent molecule PRX-3140 [4]: 29.6%
